Source: publication PMC11061149, “Protein mimetic 2D FAST rescues alpha synuclein aggregation mediated early and post disease Parkinson’s phenotypes” (Nature Communications, 2024)
Where “and” joins values, the source holds several entries; their conditions need not be identical. Identical values can stand only once.

What was measured:
[1] = target: T1, α-Synuclein (αS) aggregation (Homo sapiens, UniProt P37840); test: Thioflavin T (ThT) dye-based αS aggregation assay (de novo); type: biochemical
T1 construct: made in house; host or cells: E. coli BL21(DE3)
Summary of the method: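 100 μM αS incubated ±ligand at equimolar ratio, 37 °C with shaking at 1300 rpm; aliquots diluted into PBS containing 50 μM ThT. Fluorescence read at λex 450/λem 490 nm over time, single-point value taken at 96 h; mean of triplicates.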

15N-labeled αS monomer = target: T2, 15N-labeled αS monomer (Homo sapiens, UniProt P37840); test: 2D 1H-15N HSQC NMR of 15N-labeled αS with ligand; type: binding; conditions: 70 µM 15N-αS + equimolar ligand, V/V0
T2 construct: purchased rpeptide, Bogart, GA
Description: A solution of ^15N αS was prepared by resuspending 1 mg of uniformly labeled ^15N αS (rpeptide, Bogart, GA) in 1 mL Milli-Q water to yield a 70 μM αS solution in 20 mM Tris-HCl pH 7.4, 100 mM NaCl. The protein was buffer exchanged to Milli-Q water, lyophilized, and stored at –80 °C. For the preparation of NMR experiments, the lyophilized ^15N αS powder was dissolved in the NMR buffer (300 μL, 20 mM NaPO4 pH 6.4, 5% D2O, v/v) to make a final concentration of 70 μM. The protein concentration was confirmed with a NanoDrop One (Thermo Scientific, Waltham, MA) at 280 nm using an extinction coefficient of 5960 M^-1cm^-1. The solutions were transferred into Shigemi BMS-005 NMR tube (Shigemi, Tokyo, Japan) and the two-dimensional ^1H-^15N HSQC NMR experiments were performed on a 600 MHz Bruker Avance Neo (CU Anschutz, NMR core facility, CO) instrument equipped with a triple resonance HCN cryoprobe. Data was collected at 12 °C on Topspin 4.9.0 software (Bruker, Billerica, MA). The HSQC spectra were recorded using a data matrix consisting of 1024 (t2, ^1H) × 160 (t1, ^15N) complex points. Resonance assignments were determined utilizing a previous publication[83] and the data analysis was performed using MestReNova software.
For the HSQC experiments titrating NS132 into ^15N αS, the same experimental conditions were used as above. Incrementally, NS132 was added to a single ^15N αS solution, mixed, kept at r.t. for 10 min and HSQC was recorded under the conditions stated above. For HSQC experiments containing pre-formed fibrils (PFF) of αS, 5.4 eq. of PFF solution (500 μM) was added to monomeric ^15N αS solution, and the spectra was recorded as previously stated.

ThT fluorescence intensity, Average ([1]; 100 µM αS + equimolar ligand, aggregation profile Fig. 2n/5c, time 0 hr): 108 | ThT fluorescence intensity, Average ([1]; 100 µM αS + equimolar ligand, comparison with reported ligands Fig. 5f, time 0 hr): 49.3333 | effect on αS aggregation (ThT assay), in words ([1]; 100 µM αS, equimolar, four days): completely suppressed | ThT intensity relative to Synuclein alone (=1), Average ([1]; 100 µM αS, four days, equimolar): 0.008333 | ThT intensity relative to Synuclein alone (=1), Trial 1-3 ([1]; 100 µM αS, four days, equimolar, individual trials): 0.009745 and 0.008898 and 0.006356 | ThT fluorescence intensity, Average ([1]; Fig. 2n/5c profile, time 6 hr): 108 | ThT fluorescence intensity, Average ([1]; Fig. 2n/5c profile, time 12 hr): 44.6667 | ThT fluorescence intensity, Average ([1]; Fig. 2n/5c profile, time 24 hr): 48.6667 | ThT fluorescence intensity, Average ([1]; Fig. 2n/5c profile, time 35 hr): 41 | ThT fluorescence intensity, Average ([1]; Fig. 2n/5c profile, time 48 hr): 76.6667 | ThT fluorescence intensity, Average ([1]; Fig. 2n/5c profile, time 58 hr): 49 | ThT fluorescence intensity, Average ([1]; Fig. 2n/5c profile, time 77 hr): 35 | ThT fluorescence intensity, Average ([1]; Fig. 2n/5c profile, time 105 hr): 35.3333 | ThT fluorescence intensity, Average ([1]; Fig. 5f profile, time 6 hr): 35.6667 | ThT fluorescence intensity, Average ([1]; Fig. 5f profile, time 12 hr): 44.3333 | ThT fluorescence intensity, Average ([1]; Fig. 5f profile, time 24 hr): 46 | ThT fluorescence intensity, Average ([1]; Fig. 5f profile, time 36 hr): 47.6667 | ThT fluorescence intensity, Average ([1]; Fig. 5f profile, time 48 hr): 43.6667 | ThT fluorescence intensity, Average ([1]; Fig. 5f profile, time 72 hr): 43.6667 | ThT fluorescence intensity, Average ([1]; Fig. 5f profile, time 96 hr): 44.6667 | Relative ThT intensity of αS aggregation, Average ([1]; sheet S7A, Synuclein alone about 1): 0.008333 | Relative ThT intensity of αS aggregation ([1]; sheet S7A, Synuclein alone about 1, individual trials): 0.009745 and 0.008898 and 0.006356 | Relative ThT intensity of αS aggregation, Average ([1]; sheet S8B, Synuclein alone = 1): 0.04997 | Relative ThT intensity of αS aggregation ([1]; sheet S8B, Synuclein alone about 1, individual trials): 0.0476 and 0.0492 and 0.0531 | ThT intensity of Synuclein with ligand, Average ([1]; sheet S17, average of 3 trials, Synuclein alone 206, ThT control 37): 50.3667 | ThT intensity of Synuclein with ligand, Trial 1-3 ([1]; sheet S17, individual trials, Synuclein alone average 206, ThT control average 37): 48.4 and 53.2 and 49.5 | inhibition of αS aggregation, in words ([1]; substoichiometric ratio αS:NS132 1:0.2): wholly inhibit | ThT intensity (raw), individual trials ([1]; αS aggregation after four days, NS132 derivatives equimolar (Fig. 2r)): 1344 and 1402 and 1510 | Change in volume of peaks, αS residue A11 (15N-labeled αS monomer): 0.12 | Change in volume of peaks, αS residue A17 (15N-labeled αS monomer): 0.33 | Change in volume of peaks, αS residue A18 (15N-labeled αS monomer): 0.55 | Change in volume of peaks, αS residue A19 (15N-labeled αS monomer): 0.15 | Change in volume of peaks, αS residue A56 (15N-labeled αS monomer): 0.13 | Change in volume of peaks, αS residue A78 (15N-labeled αS monomer): 0.03 | Change in volume of peaks, αS residue A89 (15N-labeled αS monomer): 0.12 | Change in volume of peaks, αS residue A90 (15N-labeled αS monomer): 0.08 | Change in volume of peaks, αS residue A107 (15N-labeled αS monomer): 0.04 | Change in volume of peaks, αS residue E13 (15N-labeled αS monomer): 0.05 | Change in volume of peaks, αS residue E20 (15N-labeled αS monomer): 0.17 | Change in volume of peaks, αS residue E46 (15N-labeled αS monomer): 0.14 | Change in volume of peaks, αS residue G14 (15N-labeled αS monomer): 0.1 | Change in volume of peaks, αS residue G31 (15N-labeled αS monomer): 0.08 | Change in volume of peaks, αS residue G36 (15N-labeled αS monomer): 0.1 | Change in volume of peaks, αS residue G41 (15N-labeled αS monomer): 0.31 | Change in volume of peaks, αS residue G68 (15N-labeled αS monomer): 0.06 | Change in volume of peaks, αS residue G93 (15N-labeled αS monomer): 0.04 | Change in volume of peaks, αS residue H50 (15N-labeled αS monomer): 0.52 | Change in volume of peaks, αS residue K10 (15N-labeled αS monomer): 0.12 | Change in volume of peaks, αS residue K12 (15N-labeled αS monomer): 0.77 | Change in volume of peaks, αS residue K43 (15N-labeled αS monomer): 0.42 | Change in volume of peaks, αS residue L38 (15N-labeled αS monomer): 0.05 | Change in volume of peaks, αS residue L100 (15N-labeled αS monomer): 0.09 | Change in volume of peaks, αS residue S42 (15N-labeled αS monomer): 0.46 | Change in volume of peaks, αS residue S129 (15N-labeled αS monomer): 0.14 | Change in volume of peaks, αS residue T22 (15N-labeled αS monomer): 0.03 | Change in volume of peaks, αS residue T59 (15N-labeled αS monomer): 0.26 | Change in volume of peaks, αS residue T64 (15N-labeled αS monomer): 0.08 | Change in volume of peaks, αS residue T75 (15N-labeled αS monomer): 0.22 | Change in volume of peaks, αS residue V3 (15N-labeled αS monomer): 0.04 | Change in volume of peaks, αS residue V15 (15N-labeled αS monomer): 0.61 | Change in volume of peaks, αS residue V16 (15N-labeled αS monomer): 0.09 | Change in volume of peaks, αS residue V37 (15N-labeled αS monomer): 0.08 | Change in volume of peaks, αS residue V40 (15N-labeled αS monomer): 0.13 | Change in volume of peaks, αS residue V66 (15N-labeled αS monomer): 0.04 | Change in volume of peaks, αS residue V77 (15N-labeled αS monomer): 0.16 | Change in volume of peaks, αS residue V82 (15N-labeled αS monomer): 0.09 | Change in volume of peaks, αS residue Y39 (15N-labeled αS monomer): 0.21
SMILES: Cc1ccc(NC(=O)c2ccc(NC(=O)c3ccc([N+](=O)[O-])c(NCCc4c[nH]c5ccccc45)n3)c(NCC3CCCCC3)n2)c(OCC(=O)O)n1 [NS132]
